Reference: patent publication US20240299405A1, “APPLICATION OF ATP POTASSIUM CHANNEL MODIFIER IN PREPARATION OF ANTI-DIABETIC NEPHROPATHY DRUG” (HANGZHOU QIAN BIOTECHNOLOGY LTD, priority 2020, published 2024)

Key:
[1] = tested on: STZ diabetic rat models (diabetic nephropathy); experiment: Urine microalbumin (mALB) by ELISA in STZ plus high-fat diet diabetic nephropathy rat model; format: in vivo, SD rats; conditions: for mALB, urine microalbumin value of each KATP agonist: week 30, mean ± SE; for effect on reducing the amount of microalbumin in diabetic nephropathy urine compared with the negative control group: week 30, p<0.05; for mALB, 20 Week: week 20, mean ± SE; for mALB, 24 Week: week 24, mean ± SE; for mALB, 26 Week: week 26, mean ± SE; for mALB, 32 Week: week 32, mean ± SE; for mALB, 35 Week: week 35, mean ± SE
Text: STZ substantially and excessively damages islet-β cells through chemical toxicity (Saini K, Thompson C, Winterford C M, Walker N I, Cameron D P. Streptozotocin at low doses induces apoptosis and at high doses causes necrosis in a murine pancreatic b cell line, INS1[J]. International Union of Biochemistry and Molecular Biology Life. 1996, 39(6): 1229-1236). The pathophysiological characteristics of STZ modeled rats are relatively close to that of humans. Their blood can be collected repeatedly to monitor index changes and enough kidney tissues can be obtained for subsequent tissue section analysis. Therefore, STZ diabetic rat models are used. In addition, due to the high toxicity of STZ, multiple injections at low doses can establish better models. Keep feeding a high-fat diet daily after modeling until the end of the experiment. A high-fat diet can cause diabetic nephropathy in STZ rats.
Urine microalbumin (mALB) is an early diagnostic index of kidney injury, and mALB was used as an indicator to test whether rats entered diabetic nephropathy, and rat weight and blood glucose levels were used to observe whether the model was successful.
mALB is one of the most important monitoring indicators of nephropathy. […] Since the measurement results of mALB in humans and mice are different. The difference between the dosing group (group C) and the negative control group (group B) is used to judge whether the test results of this experiment are valid. The normal mALB value in this experiment was only used as a reference value, which is using the data of group A (blank control group).
At the beginning of the experiment, urine and blood of all rats were collected for the detection of the required indicators, and the initial indicators were used as a timely reference for the disease progression of the rats. After the start of the experiment, all rats were sampled with the Elisa kit every other month to detect mALB and other data.
Rat urine collection: urine is collected by metabolic cage, urine is collected after 24 h, the total amount of urine is recorded, and the urine output at 24 h is calculated. Take 1 ml of urine, centrifuge and take the supernatant and store at −80° C. for testing.
A 24 h urine sample was collected from rats for testing, and the collected sample was centrifuged at 15 min, centrifuged at 4° C. at 1000 ref for 20 min, and the mALB value was detected by supernatant or stored at −20° C.
Before starting the experiment, you need to do the following: • (1) Place all reagents (including specimens) in the room and equilibrate to room temperature (18-25° C.) before use. • (2) The standard is diluted to the corresponding gradient. Take a bottle of standard, add 1 mL of standard diluent (at this time the concentration is 1000 μg/mL), mix gently, let stand at room temperature for 10 minutes, and gently shake every 2 minutes to mix. After mixing, dilute it to 100 μg/mL, take 4 EP tubes (add 600 μL of standard dilute to each EP tube), triple dilute the standard from a concentration of 100 μg/mL to 33.33 μg/mL, 11.11 μg/mL, 3.70 μg/mL, 1.23 μg/mL, and use the standard dilution as a blank well (0 μg/mL). • (3) Working solution of the detection solution A: add 150 μL of reagent dilution to the mother liquor of the detection solution A, stand at room temperature for 10 minutes, and shake gently every 2 minutes to have a well-mix. Before use, dilute with the detection diluent A at 1:100, and mix the solution well with the shaker. Calculate the required amount at 50 μL/well for dilution before use (0.1-0.2 mL more needs to be prepared). • (4) Working solution of the detection solution B: Detection solution B needs to be centrifuged at 5000 ref for 10 s before each use to deposition the liquid from the tube wall or cap to the bottom of the tube. Immediately before use, dilute with the detection diluent B at 1:100, and mix them well with the shaker. […]

[2] = tested on: rat kidney; experiment: HE staining of rat kidney sections (glomeruli, tubules); format: in vivo, SD rats; conditions: 5 mg/kg (medium-dose) group, six-month rat, renal HE×400
Text: In addition, clinically patients with nephropathy will have an increase in glomerular volume and a higher number of cells in the early stage, and with the progression of the disease, there will be widening of the mesangial area, the mesangial cells and mesangial stroma will increase, and the tubular epithelial cells will have cell edema, that is, often called granular degeneration or vacuolar degeneration, tubulointerstitial fibrosis and other symptoms. In this experiment, the glomerular volume changes of rat kidney sections were observed by HE staining, and the results of renal staining sections in each experimental group are shown in FIG. 5.

[3] = tested on: STZ diabetic rats; experiment: Glomerular filtration rate in STZ diabetic rats; format: in vivo, SD rats; conditions: groups C and D (0.5 and 5 mg/kg) versus group B
Method: (§1) Due to the large body surface area of rats, the doses of groups C, D and E were equivalent to 0.095 mg/kg, 0.95 mg/kg, and 9.5 mg/kg in humans (according to the literature: Anroop B Nair, Shery Jacob. A simple practice guide for dose conversion between animals and human. Journal of Basic and Clinical Pharmacy. 2016, 7(2):27-31.), with 95% binding capacity to albumin, similar to humans. All groups of rats were fed high-fat feed.

[4] = tested on: STZ diabetic rats; conditions: rat, in vivo, 50 mg/kg/day
Method: as §1
In addition, rats in the high-dose E group all died before diabetic nephropathy was modeled, of which 13 died in the first four months and the other 5 died in the fifth and sixth months. It was speculated that the death may be related to the high blood glucose elevation of diabetic rats. Therefore, the statistics of Table 1, FIG. 1, FIG. 2, FIG. 3 and FIG. 5 are not included those rats in group E.

[5] = group C, 0.5 mg/kg per day gavage
[6] = group D, 5 mg/kg per day gavage

Compound: C/N=C(/S)[C@]1(c2cccnc2)CCCC[S@@+]1[O-] [Aprikalim]
- mALB, urine microalbumin value of each KATP agonist ([1]; 1 mg/kg group): 59.7 ± 25.4 µg/mL
- effect on reducing the amount of microalbumin in diabetic nephropathy urine compared with the negative control group [1]: significant effect

Compound: CC1(C)Oc2ccc(C#N)cc2C(N2CCCC2=O)C1O (centres unmarked) [Cromakalim]
- mALB, urine microalbumin value of each KATP agonist ([1]; 1 mg/kg group): 77.6 ± 45.6 µg/mL
- effect on reducing the amount of microalbumin in diabetic nephropathy urine compared with the negative control group [1]: significant effect

Compound: CC1=Nc2ccc(Cl)cc2S(=O)(=O)N1 [Diazoxide, 7-chloro-3-methyl-2-hydro-1,2,4-benzothiadiazine 1,1-dioxide]
- kidney histology, HE staining [2]: some glomeruli significantly increased in size
- kidney histology, HE staining ([2]; listed as diazoxide): tubular vacuolar degeneration
- effect on the increase of compensatory glomerular filtration rate [3]: could reduce the increase of glomerular filtration rate
- progression of diabetic nephropathy ([1]; 0.5 mg/kg): can delay the progression of diabetic nephropathy
- mALB, 20 Week [1, 5]: 15.6 ± 2.9 µg/mL
- mALB, 24 Week ([1]; group C, 0.5 mg/kg per day gavage, 0.5 mg/kg/day): 18.2 ± 4.7 µg/mL
- mALB, 26 Week [1, 5]: 28.4 ± 10.8 µg/mL
- mALB, 32 Week [1, 5]: 149.5 ± 50.3 µg/mL
- mALB, 35 Week [1, 5]: 108.0 ± 33.7 µg/mL
- mALB, 20 Week [1, 6]: 14.5 ± 3.0 µg/mL
- mALB, 24 Week ([1]; group D, 5 mg/kg per day gavage, 5 mg/kg/day): 19.8 ± 4.3 µg/mL
- mALB, 26 Week [1, 6]: 19.9 ± 7.4 µg/mL
- mALB, 32 Week [1, 6]: 105.5 ± 38.9 µg/mL
- mALB, 35 Week [1, 6]: 52.8 ± 23.4 µg/mL
- death of rats [4]: all died

Compound: O=C(NCCO[N+](=O)[O-])c1cccnc1 [Nicorandil]
- mALB, urine microalbumin value of each KATP agonist ([1]; 0.5 mg/kg group): 78.2 ± 35.1 µg/mL
- effect on reducing the amount of microalbumin in diabetic nephropathy urine compared with the negative control group [1]: significant effect

Compound: CC(N/C(=N\C#N)Nc1ccncc1)C(C)(C)C (centres unmarked) [Pinacidil]
- mALB, urine microalbumin value of each KATP agonist ([1]; 1 mg/kg group): 99.7 ± 50.7 µg/mL
- effect on reducing the amount of microalbumin in diabetic nephropathy urine compared with the negative control group [1]: significant effect

Compound: Nc1cc(N2CCCCC2)nc(N)[n+]1[O-] [minoxidil]
- mALB, urine microalbumin value of each KATP agonist ([1]; 0.5 mg/kg group): 130.4 ± 60.3 µg/mL

Compound: COC(=O)C1=C(C)NC(C)=C(C(=O)OCCN(C)Cc2ccccc2)C1c1cccc([N+](=O)[O-])c1 (centres unmarked) [nicardipine]
- mALB, urine microalbumin value of each KATP agonist ([1]; 5 mg/kg group): 55.4 ± 25.6 µg/mL

Compound: CCC1NC(=O)c2cc(S(N)(=O)=O)c(Cl)cc2N1 (centres unmarked) [quinethazone]
- mALB, urine microalbumin value of each KATP agonist ([1]; 1 mg/kg group): 114.6 ± 45.3 µg/mL
